The values below come from patent publication US20260132127A1, “NOVEL SPIRO COMPOUND” (MITSUBISHI TANABE PHARMA CORPORATION, priority 2021, published 2026).

This assay concerns the target T1, human TRH-DE (Homo sapiens, UniProt Q9UKU6).
T1 construct: expressed in transfected cells; host or cells: Expi 293 cells (transient expression), membrane fraction
T1 sequence (Q9UKU6 1-1069): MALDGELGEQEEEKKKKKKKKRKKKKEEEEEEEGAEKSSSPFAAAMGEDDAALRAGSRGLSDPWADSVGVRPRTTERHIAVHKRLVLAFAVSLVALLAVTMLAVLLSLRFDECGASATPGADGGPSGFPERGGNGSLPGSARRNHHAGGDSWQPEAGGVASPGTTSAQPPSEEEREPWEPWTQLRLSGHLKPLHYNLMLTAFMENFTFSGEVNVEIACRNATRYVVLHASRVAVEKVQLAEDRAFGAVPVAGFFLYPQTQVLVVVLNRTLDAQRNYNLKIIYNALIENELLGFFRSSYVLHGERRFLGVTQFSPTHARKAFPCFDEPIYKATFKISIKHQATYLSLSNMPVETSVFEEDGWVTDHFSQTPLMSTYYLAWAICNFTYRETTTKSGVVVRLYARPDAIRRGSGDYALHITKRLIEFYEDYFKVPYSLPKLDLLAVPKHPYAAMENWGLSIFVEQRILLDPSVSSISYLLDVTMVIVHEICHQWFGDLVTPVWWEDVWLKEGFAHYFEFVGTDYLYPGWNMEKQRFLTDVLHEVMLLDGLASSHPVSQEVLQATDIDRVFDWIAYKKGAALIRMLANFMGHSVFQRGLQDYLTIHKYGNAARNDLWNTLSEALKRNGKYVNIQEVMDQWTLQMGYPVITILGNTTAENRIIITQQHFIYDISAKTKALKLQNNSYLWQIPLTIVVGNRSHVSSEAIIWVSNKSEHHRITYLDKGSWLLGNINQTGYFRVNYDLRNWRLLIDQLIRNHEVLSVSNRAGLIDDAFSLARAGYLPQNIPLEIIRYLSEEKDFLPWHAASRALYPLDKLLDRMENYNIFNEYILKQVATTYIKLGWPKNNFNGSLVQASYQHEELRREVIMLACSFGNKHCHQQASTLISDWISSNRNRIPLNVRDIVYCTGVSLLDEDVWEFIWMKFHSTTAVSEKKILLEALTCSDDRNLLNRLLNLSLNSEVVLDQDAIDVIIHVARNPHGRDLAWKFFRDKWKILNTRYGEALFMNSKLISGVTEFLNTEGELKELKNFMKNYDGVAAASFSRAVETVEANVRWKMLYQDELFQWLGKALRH
Briefly: TRH-DE inhibition test (RapidFire MS measurement of product Cyclo (His-Pro)). The note with it: membrane fraction of Expi 293 cells expressing human TRH-DE; 10 μM TRH substrate; room temperature, 2 hours; 16-point concentration test. The class given is biochemical. The procedure, abridged:
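Inhibition derived from product/internal-standard ratios of Cyclo(His-Pro), quantified by RapidFire triple-quadrupole MS after acetonitrile:methanol quench, with IC50 fitted over 16 concentrations. Enzyme source: membranes of Expi 293 cells transiently expressing human TRH-DE, 4 μg/ml, pH 7.4 phosphate buffer. Incubation with 10 μM substrate ran 2 h at room temperature.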
As usually defined, the IC50 is the midpoint of a concentration-inhibition curve. A high value points to lower potency. The molecule `C[C@@H]1COc2nc(N3CCCCC3)ncc2C(=O)N1C1CC2(C1)CN(S(=O)(=O)c1ccccc1F)C2` [Example 382] came in with an IC50 of 4 nM.

In turn, `C[C@@H]1COc2nc(N3CCOCC3)ncc2C(=O)N1C1CC2(C1)CN(S(=O)(=O)c1ccccc1F)C2` [Example 383] came in with an IC50 of 11 nM.

As for `C[C@@H]1COc2nc(N3CCCOCC3)ncc2C(=O)N1C1CC2(C1)CN(S(=O)(=O)c1ccccc1F)C2` [Example 384], half-maximal inhibition (IC50) was put at 5 nM.

Molecule `COC1CCN(c2ncc3c(n2)OC[C@@H](C)N(C2CC4(C2)CN(S(=O)(=O)c2ccccc2F)C4)C3=O)CC1` [Example 387] yielded an IC50 of 4 nM.

In turn, `C[C@@H]1COc2nc(N3C[C@H]4COC[C@H]4C3)ncc2C(=O)N1C1CC2(C1)CN(S(=O)(=O)c1ccccc1F)C2` [Example 388] registered an IC50 of 4 nM.

Regarding `C[C@@H]1COc2nc(N3[C@@H]4CC[C@H]3COC4)ncc2C(=O)N1C1CC2(C1)CN(S(=O)(=O)c1ccccc1F)C2` [Example 389], the IC50 was 12 nM.

`C[C@@H]1COc2nc(N3[C@@H]4CCC[C@H]3COC4)ncc2C(=O)N1C1CC2(C1)CN(S(=O)(=O)c1ccccc1F)C2` [Example 390] returned a half-inhibitory concentration (IC50) of 11 nM.

`C[C@@H]1COc2nc(N3CCOC(F)(F)C3)ncc2C(=O)N1C1CC2(C1)CN(S(=O)(=O)c1ccccc1F)C2` [Example 391]: the half-inhibitory concentration (IC50) is 4 nM.

In turn, `C[C@@H]1COc2nc(N3[C@@H]4COC[C@H]3C4)ncc2C(=O)N1C1CC2(C1)CN(S(=O)(=O)c1ccccc1F)C2` [Example 392] returned an IC50 of 3 nM.

`CO[C@H]1CCN(c2ncc3c(n2)OC[C@@H](C)N(C2CC4(C2)CN(S(=O)(=O)c2ccccc2F)C4)C3=O)C1` [Example 393] displayed an IC50 of 3 nM.

In turn, `CO[C@@H]1CCN(c2ncc3c(n2)OC[C@@H](C)N(C2CC4(C2)CN(S(=O)(=O)c2ccccc2F)C4)C3=O)C1` [Example 394] gave an IC50 of 4 nM.

For the molecule `C[C@@H]1COc2nc(N3CCC3)ncc2C(=O)N1C1CC2(C1)CN(S(=O)(=O)c1ccccc1F)C2` [Example 395], the IC50 worked out at 3 nM.

`C[C@@H]1COc2nc(N3C[C@H]4C[C@@H]3CO4)ncc2C(=O)N1C1CC2(C1)CN(S(=O)(=O)c1ccccc1F)C2` [Example 396] gave an IC50 of 5 nM.

The molecule `C[C@@H]1COc2nc(N3C[C@@H]4C[C@H]3CO4)ncc2C(=O)N1C1CC2(C1)CN(S(=O)(=O)c1ccccc1F)C2` [Example 397] came in with an IC50 of 7 nM.

In turn, `C[C@@H]1COc2nc(N3C[C@H]4C[C@@H](C3)O4)ncc2C(=O)N1C1CC2(C1)CN(S(=O)(=O)c1ccccc1F)C2` [Example 398] displayed an IC50 of 2 nM.

In turn, `C[C@@H]1COc2nc(N3CC(F)C3)ncc2C(=O)N1C1CC2(C1)CN(S(=O)(=O)c1ccccc1F)C2` [Example 399] came in with an IC50 of 5 nM.

For the molecule `C[C@@H]1COc2nc(N3CC[C@H](C#N)C3)ncc2C(=O)N1C1CC2(C1)CN(S(=O)(=O)c1ccccc1F)C2` [Example 401], half-maximal inhibition (IC50) required 2 nM.

`C[C@@H]1COc2nc(N3CC[C@@H](C#N)C3)ncc2C(=O)N1C1CC2(C1)CN(S(=O)(=O)c1ccccc1F)C2` [Example 402] gave a half-maximal inhibitory concentration (IC50) of 3 nM.

Consider `C[C@@H]1COc2nc(N3C[C@H]4C[C@@H]3C4)ncc2C(=O)N1C1CC2(C1)CN(S(=O)(=O)c1ccccc1F)C2` [Example 403], for which the IC50 was found to be 3 nM.

In turn, `C[C@@H]1COc2nc(N3CC(C(F)(F)F)C3)ncc2C(=O)N1C1CC2(C1)CN(S(=O)(=O)c1ccccc1F)C2` [Example 404] came in with an IC50 of 4 nM.

Molecule `C[C@@H]1COc2nc(N3CC4(COC4)C3)ncc2C(=O)N1C1CC2(C1)CN(S(=O)(=O)c1ccccc1F)C2` [Example 407] yielded an IC50 of 5 nM.

The molecule `C[C@@H]1COc2nc(N3CC4(CCOC4)C3)ncc2C(=O)N1C1CC2(C1)CN(S(=O)(=O)c1ccccc1F)C2` [Example 408] returned an IC50 of 4 nM.

In the case of `C[C@@H]1COc2nc(NC3CC3)ncc2C(=O)N1C1CC2(C1)CN(S(=O)(=O)c1ccccc1F)C2` [Example 409], the midpoint of inhibition, the IC50, lay at 4 nM.

`CC(C)Nc1ncc2c(n1)OC[C@@H](C)N(C1CC3(C1)CN(S(=O)(=O)c1ccccc1F)C3)C2=O` [Example 410] came in with an IC50 of 5 nM.

In turn, `C[C@@H]1COc2nc(N3CC(C#N)C3)ncc2C(=O)N1C1CC2(C1)CN(S(=O)(=O)c1ccccc1F)C2` [Example 411] showed an IC50 of 8 nM.

`C[C@@H]1COc2nc(N3C[C@H]4CC[C@@H](C3)O4)ncc2C(=O)N1C1CC2(C1)CN(S(=O)(=O)c1ccccc1F)C2` [Example 412] gave an IC50 of 16 nM.

The molecule `Cc1ccsc1S(=O)(=O)N1CC2(CC(N3C(=O)c4cccnc4OCC3C)C2)C1` (stereo not drawn) [Example 413] came in with an IC50 of 183 nM.

`CCCN(C(=O)c1cccnc1OC)C1CC2(C1)CN(S(=O)(=O)c1cccc(C)c1)C2` [Example 414, 2-methoxy-N-[2-(3-methylphenyl)sulfonyl-2-azaspiro[3.3]heptan-6-yl]-N-propylpyridine-3-carboxamide] came in with an IC50 of 618 nM.

For `CCCN(C(=O)c1cccnc1OC)C1CC2(C1)CN(S(=O)(=O)c1cccs1)C2` [Example 415], the midpoint of inhibition, the IC50, lay at 847 nM.

The molecule `CCCN(C(=O)c1cccnc1OC)C1CC2(C1)CN(S(=O)(=O)c1ccccc1F)C2` [Example 416] registered an IC50 of 676 nM.

In turn, `CCCN(C(=O)c1cccnc1OC)C1CC2(C1)CN(S(=O)(=O)c1sccc1C)C2` [Example 417] yielded an IC50 of 690 nM.

For `CCCN(C(=O)c1cccnc1OC)C1CC2(C1)CN(S(=O)(=O)c1cc(C)ccc1F)C2` [Example 418], it took 75 nM to reach half-maximal inhibition (IC50).

Take `CCCN(C(=O)c1cccnc1OC)C1CC2(C1)CN(S(=O)(=O)c1cccc(-c3ccccc3)c1)C2` [Example 419]: the IC50 was determined as 685 nM.

The molecule `CCCN(C(=O)c1cccnc1OC)C1CC2(C1)CN(S(=O)(=O)c1cccc(C)c1F)C2` [Example 420] showed an IC50 of 701 nM.

Consider `CCCN(C(=O)c1cccnc1OC)C1CC2(C1)CN(S(=O)(=O)c1cc(OC)ccc1F)C2` [Example 421], for which the IC50 is 480 nM.

Turning to `COCC1C(c2ccccc2)=CC(=O)N1C1CC2(C1)CN(S(=O)(=O)c1ccccc1F)C2` (stereo not drawn) [Example 422], half-maximal inhibition (IC50) was put at 218 nM.

`CCCN(C(=O)c1cccnc1OC)C1CC2(C1)CN(S(=O)(=O)c1ccccc1)C2` [Example 423, N-[2-(benzenesulfonyl)-2-azaspiro[3.3]heptan-6-yl]-2-methoxy-N-propylpyridine-3-carboxamide] displayed a half-maximal inhibitory concentration (IC50) of 974 nM.

In the case of `CCCN(C(=O)c1cccnc1OCC)C1CC2(C1)CN(S(=O)(=O)c1cccc(C)c1)C2` [Example 424], half-maximal inhibition (IC50) required 795 nM.

In turn, `CCCN(C(=O)c1ccccc1OC)C1CC2(C1)CN(S(=O)(=O)c1cccc(C)c1)C2` [Example 425] showed an IC50 of 860 nM.

In the case of `CCCN(C(=O)c1ccnc2[nH]cnc12)C1CC2(C1)CN(S(=O)(=O)c1cc(C)ccc1F)C2` [Example 426], it took 95 nM to reach half-maximal inhibition (IC50).

Regarding `CCCN(C(=O)c1cccnc1N(C)C)C1CC2(C1)CN(S(=O)(=O)c1cc(C)ccc1F)C2` [Example 427], the IC50 was 52 nM.

The molecule `CCCN(C(=O)c1ccnc2[nH]ccc12)C1CC2(C1)CN(S(=O)(=O)c1cc(C)ccc1F)C2` [Example 428] showed an IC50 of 14 nM.

As for `CCCN(C(=O)c1cccnc1NC1CC1)C1CC2(C1)CN(S(=O)(=O)c1cc(C)ccc1F)C2` [Example 429], the IC50 amounted to 14 nM.

Molecule `CCCN(C(=O)c1cccc2[nH]c(C)nc12)C1CC2(C1)CN(S(=O)(=O)c1cc(C)ccc1F)C2` [Example 430] returned a concentration for half-maximal inhibition (IC50) of 48 nM.

For the molecule `CCCN(C(=O)c1nc2ccccc2[nH]1)C1CC2(C1)CN(S(=O)(=O)c1cc(C)ccc1F)C2` [Example 431], the IC50 amounted to 347 nM.

Consider `CC1CCCNC(=O)N1C1CC2(C1)CN(S(=O)(=O)c1ccccc1F)C2` (stereo not drawn) [Example 432, 1-[2-(2-fluorophenyl)sulfonyl-2-azaspiro[3.3]heptan-6-yl]-7-methyl-1,3-diazepan-2-one], for which inhibition was half-maximal at 344 nM (IC50).

In turn, `CC1CCOC(=O)N1C1CC2(C1)CN(S(=O)(=O)c1ccccc1F)C2` (stereo not drawn) [Example 433, 3-[2-(2-fluorophenyl)sulfonyl-2-azaspiro[3.3]heptan-6-yl]-4-methyl-1,3-oxazinan-2-one] returned an IC50 of 868 nM.

With `CC1CCNC(=O)N1C1CC2(C1)CN(S(=O)(=O)c1ccccc1F)C2` (stereo not drawn) [Example 434, 1-[2-(2-fluorophenyl)sulfonyl-2-azaspiro[3.3]heptan-6-yl]-6-methyl-1,3-diazinan-2-one], the IC50 amounted to 279 nM.
